Measurements taken from patent US20210379040A1, “COMBINATION TREATMENT OF LIVER DISORDERS” (Terns Pharmaceuticals, Inc., priority 2020, published 2021).
Where a name gives a salt, the structure may show the parent alone. Read-outs that look alike come from different tables or passages of the source.

Key:
[1] = cited from earlier work
[2] = system: FXR-regulated gene expression in human HuH7 hepatoma cells; test: cells; conditions: Huh-7, 11 h
Protocol: EC50 values for FXR-regulated gene expression were determined using a cell-based RNA assay.

[3] = Single-ascending dose clinical trial: plasma PK and safety
Protocol: (§1) SSAO inhibition was determined by measuring relative reductions in plasma H2O2 generation after addition of an exogenous substrate (benzylamine). […] Safety was assessed for 7 (±3) days after dosing.
(§2) Plasma PK parameters were determined by non-compartmental analysis. […] Percent change in total amine oxidase activity was determined relative to the corresponding pre-dose (baseline) samples.

[4] = male, human, in vivo
Protocol: as §1, §2

## CC[C@H]1[C@@H](O)[C@@H]2[C@H](CC[C@]3(C)[C@@H]([C@H](C)CCNC(=O)NS(=O)(=O)c4ccc(C(C)(C)C)cc4)CC[C@@H]23)[C@@]2(C)CC[C@@H](O)C[C@@H]12 [EDP-305]
[1]
  pruritus in longer term studies: known to result in pruritus

## CC[C@H]1[C@@H](O)[C@@H]2[C@H](CC[C@]3(C)[C@@H]([C@H](C)CCC(=O)O)CC[C@@H]23)[C@@]2(C)CC[C@@H](O)C[C@@H]12 [OCA, obeticholic acid, reference compound]
[2]; read-out: EC50, BSEP Gene induction/HuH7
  EC50: 200 nM
[2]; read-out: EC50, FGF-19 Gene Induction/HuH7
  EC50: 130 nM
[2]; read-out: EC50, SHP Gene induction/HuH7
  EC50: 200 nM
[1]
  pruritus in longer term studies: known to result in pruritus

## O=C(O)c1ccnc(N2CC(O)(c3ccc(OCc4c(-c5c(Cl)cccc5Cl)noc4C4CC4)cc3Cl)C2)c1 [cilofexor]
[1]
  pruritus in longer term studies: known to result in pruritus

## COC1CCN(c2ncc(OC/C(=C/F)CN)cn2)CC1 [tosylate salt of Compound 2]
[3]; 1 mg or placebo (n = 8)
  Subject incidence of TEAEs considered possibly treatment-related: 0
  Subject incidence of any TEAE: 0
  TEAE frequency: constipation: 0
  TEAE frequency: contact dermatitis: 0
  TEAE frequency: dysgeusia: 0
  TEAE frequency: headache: 0
  TEAE frequency: sore throat: 0
  TEAE frequency: upper respiratory tract infection: 0
[3]; 3 mg or placebo (n = 8)
  Subject incidence of TEAEs considered possibly treatment-related: 0
  Subject incidence of any TEAE: 0
  TEAE frequency: constipation: 0
  TEAE frequency: contact dermatitis: 0
  TEAE frequency: dysgeusia: 0
  TEAE frequency: headache: 0
  TEAE frequency: sore throat: 0
  TEAE frequency: upper respiratory tract infection: 0
[3]; 6 mg (n = 8)
  Subject incidence of TEAEs considered possibly treatment-related: 0
  Subject incidence of any TEAE: 2 (25)
  TEAE frequency: constipation: 0
  TEAE frequency: contact dermatitis: 2 (25)
  TEAE frequency: dysgeusia: 0
  TEAE frequency: headache: 0
  TEAE frequency: sore throat: 1 (12.5)
  TEAE frequency: upper respiratory tract infection: 0
[3]; 10 mg or placebo (n = 8)
  Subject incidence of TEAEs considered possibly treatment-related: 1 (12.5)
  Subject incidence of any TEAE: 3 (37.5)
  TEAE frequency: constipation: 1 (12.5)
  TEAE frequency: contact dermatitis: 0
  TEAE frequency: dysgeusia: 1 (12.5)
  TEAE frequency: headache: 1 (12.5)
  TEAE frequency: sore throat: 0
  TEAE frequency: upper respiratory tract infection: 1 (12.5)
[3]; All (n = 32)
  Subject incidence of TEAEs considered possibly treatment-related: 1 (3.1)
  Subject incidence of any TEAE: 5 (15.6)
  TEAE frequency: constipation: 1 (3.1)
  TEAE frequency: contact dermatitis: 2 (6.3)
  TEAE frequency: dysgeusia: 1 (3.1)
  TEAE frequency: headache: 1 (3.1)
  TEAE frequency: sore throat: 1 (3.1)
  TEAE frequency: upper respiratory tract infection: 1 (3.1)
[3]; single doses, healthy humans
  clearance from plasma: rapidly cleared from plasma
[4]
  TEAE frequency: oral herpes: 1 (3.1)

## O=C(O)c1cc(F)c2nc(N3[C@@H]4CC[C@H]3C[C@@H](OCc3c(-c5ccccc5OC(F)(F)F)noc3C3CC3)C4)sc2c1 [tropifexor]
[1]
  pruritus in longer term studies: known to result in pruritus
